Source: patent publication US20090005444A1, “USE OF PROPOFOL PRODRUGS FOR TREATING ALCOHOL WITHDRAWAL, CENTRAL PAIN, ANXIETY OR PRURITUS” (XenoPort, Inc., priority 2007, published 2009)

Assays:
[1] = test system: male beagle dogs; assay: Acute toxicity study, single oral dose in dogs; type: in vivo
Procedure: Acute toxicity studies were also performed by orally administering a single dose of compound (2) formulated in water to groups of male beagle dogs at doses from about 25 mg-eq/kg to about 150 mg-eq/kg propofol.

[2] = test system: rats; assay: Acute toxicity study, single oral dose in rats; type: in vivo
Procedure: Acute toxicity studies in rats were undertaken to assess the tolerance of a single oral dose of compound (2) formulated in water. […] Complete recovery from hypoactivity, sedation, and anesthesia occurred in all rats within about 8 hours after dosing. Doses above about 1552 mg-eq/kg (about 800 mg-eq/kg of propofol) were not tested.

[3] = test system: male rats; assay: Multiple dose study in rats, oral once a day for five days; type: in vivo; conditions: oral gavage once a day for five days, 49 to 97 mg-eq/kg propofol
Procedure: Multiple dose studies in rats were performed by orally administering compound (2) formulated in water to groups of male rats at doses of 49 mg-eq/kg to 97 mg-eq/kg propofol for a period of five days, by oral gavages administered once a day.

[4] = test system: central pain; conditions: subanesthetic dose 0.2 mg/kg IV; cited from earlier work
[5] = test system: delirium tremens; conditions: sedative and subsedative doses of propofol; cited from earlier work
[6] = test system: anxiety; conditions: animal studies; cited from earlier work
[7] = test system: pruritus; conditions: subhypnotic doses; cholestasis and spinal morphine administration; cited from earlier work
[8] = oral dosing in rats; cited from earlier work
[9] = rats, single oral dose about 49 to about 388 mg-eq/kg propofol
[10] = rats, single oral dose about 582 to about 970 mg-eq/kg propofol
[11] = rats, single oral dose about 1164 to about 1552 mg-eq/kg propofol

SMILES | tolerance of a single oral dose ([1]; formulated in water, about 25 to about 150 mg-eq/kg propofol) | sedation or anesthesia ([1]; single oral dose about 25 to about 150 mg-eq/kg propofol) | time to complete recovery from hypoactivity, sedation, and anesthesia ([2]; all rats, after single oral dose) | tolerance of a single oral dose ([2]; rats, formulated in water, about 49 to about 1552 mg-eq/kg propofol) | onset of transient hypoactivity after dose [2, 9] | transient hypoactivity maintained, time post dose [2, 9] | onset of sedation after dosing [2, 10] | sedation continued, time post dose [2, 10] | anesthesia continued, time post dose [2, 11] | onset of anesthesia after dosing [2, 11] | adverse effects [3] | sedation or anesthesia [3] | tolerance of multiple oral doses [3] | effect on SCIP and CPSP central pain [4] | effect on symptoms of delirium tremens [5] | anxiolytic effect [6] | effect on pruritus [7] | administered drug undergoing first pass metabolism [8]
CC(C)c1cccc(C(C)C)c1OC(=O)OC[C@H](N)C(=O)O [compound (2), (S)-2-amino-3-(2,6-diisopropyl-phenoxycarbonyloxy)-propanoic acid] | well tolerated | No sedation or anesthesia was observed | ≤ 8 h | well tolerated | ≤ 30 min | up to 4 hours | ≤ 1.5 h | up to 4 hours | up to 2 hours | ≤ 1 h | No adverse effects were observed | No sedation or anesthesia was observed | well tolerated |  |  |  |  | 
CC(C)c1cccc(C(C)C)c1O [propofol, 2,6-diisopropylphenol] |  |  |  |  |  |  |  |  |  |  |  |  |  | effective in reducing both SCIP and CPSP central pain | effective in reducing the symptoms of delirium tremens | exerts an anxiolytic effect independent of any sedative effect | effective in controlling pruritus associated with cholestasis and spinal morphine administration | approximately 90%
